From ChEMBL document CHEMBL1201862, “PubChem BioAssay data set” (2004)
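Five concentrations, 48 hours, 96-well plates. GI50 = concentration required for 50% inhibition of growth.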 The source made the active and inactive calls. No stated cut-off is given here; in the data, active = GI50 up to about 1.1 µM and inactive = higher.

Columns and labels:
Assay in all cases: NCI-60 cell line screen, 48 h
HT-29 = tested on: HT-29
OVCAR-3 = tested on: OVCAR-3
T47D = tested on: T47D
PC-3 = tested on: PC-3
NCI/ADR-RES = tested on: NCI/ADR-RES
SF-295 = tested on: SF-295
DU-145 = tested on: DU-145
SNB-75 = tested on: SNB-75
Hs-578T = tested on: Hs-578T
UACC-257 = tested on: UACC-257
OVCAR-8 = tested on: OVCAR-8
LXFL 529 = tested on: LXFL 529
HOP-62 = tested on: HOP-62
MOLT-4 = tested on: MOLT-4
MCF7 = tested on: MCF7
COLO 205 = tested on: COLO 205
CAKI-1 = tested on: CAKI-1
ACHN = tested on: ACHN
HCT-15 = tested on: HCT-15
MDA-MB-435 = tested on: MDA-MB-435

| Structure (SMILES) | GI50 (HT-29) | GI50 (OVCAR-3) | GI50 (T47D) | GI50 (PC-3) | GI50 (NCI/ADR-RES) | GI50 (SF-295) | GI50 (DU-145) | GI50 (SNB-75) | GI50 (Hs-578T) | GI50 (UACC-257) | GI50 (OVCAR-8) | GI50 (LXFL 529) | GI50 (HOP-62) | GI50 (MOLT-4) | GI50 (MCF7) | GI50 (COLO 205) | GI50 (CAKI-1) | GI50 (ACHN) | GI50 (HCT-15) [µM] | GI50 (MDA-MB-435) |
| --- | --- | --- | --- | --- | --- | --- | --- | --- | --- | --- | --- | --- | --- | --- | --- | --- | --- | --- | --- | --- |
| O=C1c2ccccc2C(=O)c2c1ccc1conc21 | 4.37 µM (inactive) | 0.296 µM (active) | 0.398 µM (active) | 1.48 µM (inactive) | 0.649 µM (active) | 2.65 µM (inactive) | 2.59 µM (inactive) | 7.59 µM (inactive) | 8.93 µM (inactive) | 1.98 µM (inactive) | 1.66 µM (inactive) | 1.8 µM (inactive) | 4.3 µM (inactive) | 0.632 µM (active) | 1.03 µM (active) | 5.65 µM (inactive) | 4.22 µM (inactive) | 1.94 µM (inactive) | 2.75 | 0.605 µM (active) |
| COc1cc(Cl)cc(O)c(=O)c1OC | 64.3 µM (inactive) | 20.1 µM (inactive) |  |  |  | 62.4 µM (inactive) |  | 59.2 µM (inactive) |  | 48.8 µM (inactive) | 36.9 µM (inactive) | 53.3 µM (inactive) | 41.1 µM (inactive) | 15.8 µM (inactive) |  | 28.7 µM (inactive) |  | 37.2 µM (inactive) | 25.4 |  |
| COC(=O)C1CC(c2ccc(Cl)cc2)=NO1 (centres undefined) | > 100 µM (inactive) | > 100 µM (inactive) |  |  |  | > 100 µM (inactive) |  | > 100 µM (inactive) |  | > 100 µM (inactive) | > 100 µM (inactive) | > 100 µM (inactive) | > 100 µM (inactive) | > 100 µM (inactive) |  | > 100 µM (inactive) | 6.17 µM (inactive) | > 100 µM (inactive) | > 100 |  |
| C1=CC=C2NCCCCCCC/N=C3/C=CC=CC=C3NCCCCCCC/N=C\2C=C1 | 37.5 µM (inactive) | 10 µM (inactive) |  |  |  | 47.5 µM (inactive) |  | 25.8 µM (inactive) |  | > 100 µM (inactive) | 40.1 µM (inactive) | > 100 µM (inactive) | 10 µM (inactive) | 31 µM (inactive) |  | > 100 µM (inactive) | > 100 µM (inactive) | 85.7 µM (inactive) | > 100 |  |
| Cc1cc(C)nc(NS(=O)(=O)c2ccc(Nc3c4ccc(Cl)cc4nc4c(C(=O)NCCN(C)C)cccc34)cc2)n1 | > 100 µM (inactive) | > 100 µM (inactive) |  |  |  | > 100 µM (inactive) |  | > 100 µM (inactive) |  | > 100 µM (inactive) | > 100 µM (inactive) | > 100 µM (inactive) | > 100 µM (inactive) | > 100 µM (inactive) |  | > 100 µM (inactive) | > 100 µM (inactive) | > 100 µM (inactive) | > 100 |  |
| CCCCN(CCCC)C(=O)C(=O)C(C(=O)C(=O)OC)c1nc2ccccc2o1 (centres undefined) | > 100 µM (inactive) | 78.5 µM (inactive) |  |  |  | > 100 µM (inactive) |  | > 100 µM (inactive) |  | > 100 µM (inactive) | > 100 µM (inactive) | > 100 µM (inactive) | 74.5 µM (inactive) | 29 µM (inactive) |  | > 100 µM (inactive) | > 100 µM (inactive) | > 100 µM (inactive) | 44.5 |  |
| O=C1C2c3[nH]c4ccccc4c3C3CCCCCC3C2C(=O)N1c1ccccc1 (centres undefined) | > 57.7 µM (inactive) | 16.3 µM (inactive) |  |  |  | 11 µM (inactive) |  | 3.44 µM (inactive) |  | 30.7 µM (inactive) | 11.8 µM (inactive) | > 86.9 µM (inactive) | 16.9 µM (inactive) | 16 µM (inactive) |  | > 25.8 µM (inactive) | 17.4 µM (inactive) | 39.6 µM (inactive) | > 47 |  |
| COCc1c(CO)cnc(C)c1OC1OC(CO)C(O)C(O)C1O (centres undefined) | > 100 µM (inactive) | > 100 µM (inactive) |  |  |  | > 100 µM (inactive) |  | > 100 µM (inactive) |  | > 100 µM (inactive) | > 100 µM (inactive) | > 100 µM (inactive) | > 100 µM (inactive) | > 100 µM (inactive) |  |  | > 100 µM (inactive) | > 100 µM (inactive) | > 100 |  |
